Test results taken from US5023270A, “Antidepressant method of use” (priority 1988, dated 1991).
“Also recorded” adds a separate entry of the source.

Columns and labels:
rabbits = test: Long-term toxicity, ingestive intake; format: in vivo; conditions: 300 mg/kg daily, 42 consecutive days
Excerpt: The general, long-term toxicity of 5-MOP was also investigated in rabbits treated by ingestion and dermal application, with the following results: […]

[1] = test system: major depressive disorder; test: Clinical study of antidepressant effect (17 HDRS items), major depressive disorder; format: in vivo, human
Experimental: Experimental verification of the clinical effects of 5-MOP on depressive patients was performed on 24 physically sane subjects (11 men and 13 women), suffering from a major depressive disorder.
Chosen patients afflicted with a major depressive disorder according to DSM III were given no treatment 4 days prior to the experiment, except for 5 mg nitrazepam in the evening.
The patients were divided into two groups. The first group was treated with a single daily dose of 40 mg 5-MOP during a week, administered orally at 9:00 p.m. The second group was given placebos, double blindly, under identical conditions.
To prevent any parallel effects due to the photosensitive properties of 5-MOP, patients were not exposed to ultraviolet (UV) radiation during nine hours following 5-MOP intake (corresponding to their sleep period).
After a week of treatment with 5-methoxypsoralen or placebos, clinical results were established for each patient group, and compared using the Wilcoxon test (W) within groups and the Mann-Whitney test (U) between groups.

plasma melatonin [2] = conditions: cited from earlier work
plasma melatonin [3] = test: Plasma melatonin in psychiatric patients and control subjects after a single oral dose of 5-MOP; format: in vivo, human; conditions: for Delta Melatonin: 11:00 p.m. minus 8:00 p.m. baseline, 40 mg oral; for Melatonin (11:00 p.m.): 3 h after 40 mg oral 5-MOP, mean ± SEM
Experimental: FIG. 1 is a bar histogram which depicts the plasma melatonin levels in six diverse groups of human subjects before and after treatment with a single dose of 40 mg 5-methoxypsoralen (5-MOP) administered orally to each subject at 8:00 p.m. The subjects were maintained in total darkness or under weak illumination (without UV) for at least 9 hours after 5-MOP intake (corresponding to the sleep period). Blood samples were taken at 8:00 p.m. prior to 5-MOP administration and at 11:00 p.m. (see text for full description of experimental details). Plasma melatonin levels were evaluated by radioimmunology after extraction in diethylether using the method of Treifenaueret, Andres. Melatonin levels were established and compared with each group of subjects with similar age means using paired t-tests and between groups using unpaired t-tests. " -melatonin is defined as the difference between plasma melatonin levels (nmd/1) after 5-MOP uptake (3 hours after administration and =before 5-MOP administration; =after 5-MOP uptake. (p=significance of difference between the two values. )
The experiment was performed on six groups of human subjects.
Control groups 1, 2 and 3 comprised respectively:
Group 1: 13 elderly, sane subjects (7 women, 6 men).
Group 2: 13 middle-aged, sane subjects (6 women, 7 men).
Group 3: 13 young, sane subjects (6 women, 7 men).
These subjects had been contacted for welfare or minor nervous problems, but were free from major psychiatric disorders or organic illnesses. Most aged subjects were waiting for admission to nursing homes.
These elderly patients had no major cardiac, hepatic, renal, endocrineous or osseous disorders, nor any evolutionary pathology.
Group 5 comprised 13 subjects (8 women, 5 men) in an acute depressive phase, showing all symptoms of a major depressive disorder in the sense of DSM III.
Group 6 comprised 13 schizophrenic subjects (6 women, 7 men), according to DSM III criteria.
The diagnosis was established by means of a structured examination for affective disorders, schizophrenia and dementia, performed on each patient by two different psychiatrists. Any patient with a history of serious attendant illnesses, such as high blood pressure, diabetes, or other endocrineous pathologies, with distorted clinical or biological results, were excluded from the study. The patients received no medicaments 4 days prior to the experiment, except for 5 mg nitrazepam or 0.25 mg trazolam in the evening. All subjects participated voluntarily in the experiment and 5 were advised of its purpose. A single dose of 40 mg 5-methoxypsoralen (5-MOP) was given orally to all subjects at 8:00 p.m. To avoid any photosensitivity effects due to psoralen, patients were maintained in total darkness or under weak illumination (without UV) for at least 9 hours after 5-MOP intake (corresponding to the sleep period).
Blood samples were taken at 8:00 p.m., prior to 5-MOP administration, and again at 11:00 p.m., by means of a stationary catheter attached to the forearm at least twenty minutes before extraction of the first blood sample. Samples were immediately centrifugated at 4° C. and refrigerated at -20° C. until quantitative analysis. Plasma levels were evaluated by radioimmunology after extraction in diethylether, using the #method of Treifenaueret, Andres.
Melatonin levels were established and compared within each group by means of paired t-tests, and between groups by unpaired t-tests.
Because age could influence endocrinous responses, only groups with similar age means were compared in these experiments.
" melatonin" has been defined as the difference between melatonin levels after 5-MOP intake and the corresponding baseline values. The parameter "p" measures the significance of the difference between two values.

[4] = Acute oral toxicity, single administration, 14 days observation; conditions: in vivo, 2% carboxymethylcellulose with 5% Tween 80
Experimental: Animal trials were performed with mice and male rats free from specific pathogenic organisms, subject to a preliminary water diet for 18 hours. All animals were kept under observation during 14 days after a single oral administration, in order to detect any eventuality of toxic after effects. The median lethal dose LD50 and its confidence limits were computed by the graphic method of J. T. Litchfield and F. Wilcoxon.
Oral administration was used throughout the experiments, with an aqueous solution of 2% carboxymethylcellulose treated with Tween®80 (Difco or ICI) at 5% as dispersing agent.

SMILES: COc1c2ccoc2cc2oc(=O)ccc12 [5-MOP, 4-methoxy-7H-furo[3,2-g][1]benzopyran-7-one]
- tolerance in toxicological tests (general condition, hematological, anatomicopathological, skin and eye, clinical chemolysis) (rabbits): good tolerance
- side effects ([1]; 40 mg daily oral, one week): no patient treated with 5-MOP suffered side effects
- treatment period to obtain the same improvement in behavior ([1]; 5-MOP composition compared with tricyclics): one
- HDRS J7 ([1]; 17 HDRS items, 40 mg daily oral 9:00 p.m., one week, n=12, HDRS J0 21.92 ± 8.21, W 3.5, p 0.01, placebo J7 21.16 ± 5.02): 16.67 ± 7.99
- improvement of depressive state (in words) ([1]; after a week of treatment, 40 mg daily oral, vs placebo): significant improvement; also recorded: rapid improvement from depression; also recorded: significantly improves the depressive state
- effect without UVA irradiation ([1]; without irradiation of patients by UVA): full effect
- retinal sensitivity to light (plasma melatonin [2]; humans, acute effect): increases
- plasma melatonin levels / melatonin secretion (in words) (plasma melatonin [2]; humans, sane subjects, earlier reports): increased melatonin secretion; also recorded: increases in plasma melatonin levels
- effect on other endocrine hormones (plasma melatonin [2]; perfectly sane human subjects): no discernible effect
- Delta Melatonin (plasma melatonin [3]; Control 1 (elderly sane)): 0.22 ± 0.11 nmd/1
- Melatonin (11:00 p.m.) (plasma melatonin [3]; Control 1 (elderly sane, n=13), baseline 8:00 p.m. 0.19 ± 0.05): 0.42 ± 0.12 nmd/1
- Delta Melatonin (plasma melatonin [3]; Control 2 (middle-aged sane)): 0.20 ± 0.08 nmd/1
- Melatonin (11:00 p.m.) (plasma melatonin [3]; Control 2 (middle-aged sane, n=13), baseline 8:00 p.m. 0.16 ± 0.04): 0.36 ± 0.09 nmd/1
- Delta Melatonin (plasma melatonin [3]; Control 3 (young sane)): 0.21 ± 0.09 nmd/1
- Melatonin (11:00 p.m.) (plasma melatonin [3]; Control 3 (young sane, n=13), baseline 8:00 p.m. 0.16 ± 0.05): 0.36 ± 0.11 nmd/1
- correlation between melatonin levels and absolute 5-MOP content (plasma melatonin [3]; at the dosage used (40 mg)): No correlation was observed
- melatonin levels after 5-MOP intake (in words) (plasma melatonin [3]; control groups, vs before intake, t=4.59, p<0.01, t=4.18, p<0.001, t<3.92, p<0.001): substantially higher
- Melatonin (11:00 p.m.) (plasma melatonin [3]; dements (n=13), baseline 8:00 p.m. 0.21 ± 0.06, t=3.34, p<0.01): 0.30 ± 0.08 nmd/1
- mean delta melatonin vs control group (in words) (plasma melatonin [3]; dements vs elderly control group, r=2.4, p<0.03): substantially lower
- Delta Melatonin (plasma melatonin [3]; dements, vs Control 1 t/p 2.4/0.025): 0.09 ± 0.06 nmd/1
- Melatonin (11:00 p.m.) (plasma melatonin [3]; depressives (n=13), baseline 8:00 p.m. 0.22 ± 0.06, t=2.29, p<0.05): 0.39 ± 0.15 nmd/1
- mean delta melatonin vs control group (in words) (plasma melatonin [3]; depressives vs control group, r=0.59, p<0.05, not significant): slightly lower
- Delta Melatonin (plasma melatonin [3]; depressives, vs Control 2 t/p 0.59/0.562): 0.17 ± 0.09 nmd/1
- plasma melatonin levels after administration (in words) (plasma melatonin [3]; psychiatric subjects): significant rise; also recorded: significant increase
- Melatonin (11:00 p.m.) (plasma melatonin [3]; schizophrenics (n=13), baseline 8:00 p.m. 0.21 ± 0.09, t=8.31, p<0.0001): 0.48 ± 0.09 nmd/1
- Delta Melatonin (plasma melatonin [3]; schizophrenics, vs Control 3 t/p 0.58/0.567): 0.15 ± 0.05 nmd/1
- side-effects (plasma melatonin [3]; single 40 mg oral dose, all groups): No patient exhibited side-effects
- LD50 at 336 h ([4]; mouse, male mice): 8100 mg/kg
- LD50 at 336 h ([4]; rat, male rats): > 30000 mg/kg

SMILES: COc1c2occc2cc2ccc(=O)oc12 [8-methoxypsoralen, reference compound]
- LD50 at 336 h ([4]; mouse, male mice): 875 mg/kg
- LD50 at 336 h ([4]; rat, male rats): 4400 mg/kg
